According to patent publication US11980616B2, “Treating liver disease by selectively eliminating senescent cells” (Buck Institute for Research on Aging, priority 2014, dated 2024):
pIC50: −log10 of the molar value.

Assays:
p16-3MR animals = experiment: Senescence induced by chemotherapeutic drugs in p16-3MR animals (luminescence); assay type: in vivo, mouse; settings: p<0.05; pomalidomide 5 mg/kg, lenalidomide 50 mg/kg 7 daily injections; doxorubicin 10 mg/kg 2-4 injections
Description: To examine senescence induced by different chemotherapeutic drugs, groups of p16-3MR animals (n=4) were treated with thalidomide (100 mg/kg; 7 daily injections); romidepsin (1 mg/kg; 3 injections); pomalidomide (5 mg/kg; 7 daily injections); lenalidomide (50 mg/kg; 7 daily injections); 5-azacytidine (5 mg/kg; 3 injections) and compared with doxorubicin (10 mg/kg, 2-4 injections over 7 days).

[1] = test system: myocardial damage in patients; settings: drug product inserts; cited from earlier work
p16-3MR transgenic mice = experiment: Paclitaxel-induced senescence in p16-3MR mice; assay type: in vivo, mouse; settings: 20 mg/kg three times every two days
Description: Paclitaxel induces senescence and SASP in p16-3MR transgenic mice. Groups of mice (n=4) were treated three times every two days with 20 mg/kg paclitaxel or vehicle. […] The level of mRNA in skin was determined for each of the target genes: p16, 3MR transgene, and IL-6.

[2] = test system: non-senescent IMR90 cells; experiment: CellTiter-Glo cell viability assay, non-senescent IMR90; assay type: cell-based; settings: Homo sapiens, IMR-90, 72 h; non-senescent IMR90, 3 days
Description: (§1) To determine whether ABT-263 is selectively toxic to senescent cells compared to non-senescent cells, a cell viability assay was used to assess cell survival following treatment with ABT-263. IMR90 cells (human primary lung fibroblasts (IMR90) (IMR-90 (ATCC® CCL-186™, Manassas, Virginia) were seeded in six well plates, and cells were induced to senescence with 10 Gy of ionizing radiation (IR) (Day 0). The media was refreshed every 3 days. The senescent phenotype is allowed to develop for 7 days at which point a cell count was made to determine the baseline number of cells followed by seeding into 96-well plates. On day 8, the senescent cells (irradiated) and the non-senescent cells (the non-radiated cells), were exposed to serial dilutions of ABT-263 for a period of 3 days. ABT-263 concentrations ranged from 0.5 nM to 3 μM. Each condition was seeded in triplicate.
(§2) After three days of treatment (Day 11), cells were assayed for cell survival using the commercially available CellTiter-Glo® (CTG) Luminescent Cell Viability Assay (Promega Corporation, Madison, Wisconsin). The assay determines the number of viable cells in culture based on the quantitation of ATP present which is an indicator of metabolically active cells.
The experiments performed for assessing the effect of these other Bcl-2 inhibitors were performed essentially as described in Example 7. […]

senescent IMR90 cells = experiment: CellTiter-Glo cell viability assay, senescent IMR90; assay type: cell-based, human
Description: as §1, §2
The experiments performed for assessing the effect of these other Bcl-2 inhibitors were performed essentially as described in Example 7. Cells were exposed to ABT-199 at serial dilution concentrations ranging from 15 nM to 100 μM (FIGS. 26 and 27). Cells were exposed to Obatoclax at concentrations ranging from 1.4 nM to 9 μM (FIG. 28).
IMR90 cells were induced to senescence by irradiation as described in Example 7. The irradiated IMR90 cells and non-senescent IMR90 cells were then exposed to a compound called ML214 that is a Bcl-2A1 specific inhibitor.
The effect of ABT-263 in combination with the Akt inhibitor MK-2206 was tested for selective toxicity of senescent cells compared to non-senescent cells in IMR90 cells. The methods of Example 7 were repeated except that cell cultures were exposed to 10 nM MK-2206 (Selleckem, Cat #S1078) in addition to serial dilutions of ABT-263.

[3] = test system: 3MR or INK-ATTAC mice exposed to cigarette smoke; experiment: Chronic cigarette smoke exposure model (COPD); assay type: in vivo, mouse; settings: after 2 months of cigarette smoke exposure; vs untreated controls
Description: In a second animal model for pulmonary diseases (e.g., COPD), mice were exposed to cigarette smoke. The effect of a senolytic agent on the mice exposed to smoke is assessed by senescent cell clearance, lung function, and histopathology.
Six week-old 3MR (n=35) or INK-ATTAC (n=35) mice were chronically exposed to cigarette smoke generated from a Teague TE-10 system, an automatically-controlled cigarette smoking machine that produces a combination of side-stream and mainstream cigarette smoke in a chamber, which is transported to a collecting and mixing chamber where varying amounts of air is mixed with the smoke mixture. The COPD protocol was adapted from the COPD core facility at Johns Hopkins University (at Internet site web.jhu.edu/Biswal/exposure_core/copd.html#Cigarette_Smoke) (Rangasamy et al., 2004, J. Clin. Invest. 114:1248-1259; Yao et al., 2012, J. Clin. Invest. 122:2032-2045). Mice received a total of 6 hours of cigarette smoke exposure per day, 5 days a week for 6 months. Each lighted cigarette (3R4F research cigarettes containing 10.9 mg of total particulate matter (TPM), 9.4 mg of tar, and 0.726 mg of nicotine, and 11.9 mg carbon monoxide per cigarette [University of Kentucky, Lexington, KY]) was puffed for 2 seconds and once every minute for a total of 8 puffs, with the flow rate of 1.05 L/min, to provide a standard puff of 35 cm^3. The smoke machine was adjusted to produce a mixture of side stream smoke (89%) and mainstream smoke (11%) by smoldering 2 cigarettes at one time. The smoke chamber atmosphere was monitored for total suspended particulates (80-120 mg/m^3) and carbon monoxide (350 ppm). Beginning at day 7, (10) INK-ATTAC and (10) 3MR mice were treated with AP20187 (3× per week) or gancyclovir (5 consecutive days of treatment followed by 16 days off drug, repeated until the end of the experiment), respectively. An equal number of mice received the corresponding vehicle. The remaining […] (15 INK-ATTAC and 15 3MR) were evenly split with 5 of each genetically modified strain placed into three different treatment groups. One group (n=10) received Nutlin-3A (25 mg/kg dissolved in 10% DMSO/3% Tween-20 in PBS, treated 14 days consecutively followed by 14 days off drug, repeated until the end of the experiment). […]
After two months of cigarette smoke exposure, lung function was assessed by monitoring oxygen saturation using the MouseSTAT PhysioSuite pulse oximeter (Kent Scientific). […] Mice were monitored for 30 seconds and the average peripheral capillary oxygen saturation (SpO2) measurement over this duration was calculated.

[4] = test system: INK-ATTAC transgenic mice; experiment: Cardiac stress test (isoproterenol) in aged INK-ATTAC transgenic mice; assay type: in vivo, mouse
Description: To study the impact of senescent cell clearance on health and lifespan, cohorts of INK-ATTAC transgenic mice on FVB×129Sv/E×C57BL/6 mixed or C57BL/6 pure genetic backgrounds were established. At 12 months age, one half of each cohort was injected three times/week with AP20187 to induce apoptosis of p16-positive senescent cells (0.2 mg/kg and 2 mg/kg AP20187 for the mixed and the pure C57BL/6 cohorts, respectively), while the other half of each cohort received vehicle. At 18 months, subsets of male and female mice from each cohort were subjected to a cardiac stress test, in which mice were injected with a lethal dose of isoproterenol (680 mg/kg) and the time to cardiac arrest was recorded.
Cardio-protective signaling pathways are known to provide tolerance to metabolic stresses such as ischemia and hypoxia decline (Granfeldt et al., 2009, Cardiovasc. Res. 83:234-246). However, cardio-protective signaling deteriorates with aging, thus decreasing the functional and adaptive reserve capacity of the heart (Ogawa et al., 1992, Circulation 86:494-503; Wiebe et al., 1998, Clin. J. Sport Med. 8:272-279). ATP-dependent K channels (KATP) play a central role in cardio-protective signaling (Gross and Auchampach, 1992, Cardiovasc. Res. 26:1011-1016). These KATP channels are composed of the pore-forming subunit Kir6.2/Kir6.1, the regulatory subunit Sur2a, and additional accessory proteins. KATP channels are thought to decline with aging due to decreased expression of Sur2a (Du et al., 2006, FASEB J. 20:1131-1141; Jovanovic and Jovanovic, 2009, Curr. Opin. Pharmacol. 9:189-193; Ranki et al., 2002, Mech. Ageing Dev. 123:695-705). […] Thus, the contribution of senescent cells to the age-related decline in Sur2a expression was examined in 18 month old AP20187-treated and vehicle treated mice from subjected to the cardiac stress test previously described. […] Taken together, these experiments indicate that the presence of senescent cells with aging negatively impacts KATP channel function, and senescent cell clearance is an effective therapy to counteract this deterioration.

Structure (SMILES): COc1cccc2c1C(=O)c1c(O)c3c(c(O)c1C2=O)C[C@@](O)(C(=O)CO)C[C@@H]3O[C@H]1C[C@H](N)[C@H](O)[C@H](C)O1 [doxorubicin]
- Level of senescent cells (luminescence) (p16-3MR animals): significant levels of senescent cells
- Total lifetime dose above which myocardial damage may lead to congestive heart failure [1]: exceeds 550 mg/m^2

Structure (SMILES): CC(=O)O[C@H]1C(=O)[C@@]2(C)[C@H]([C@H](OC(=O)c3ccccc3)[C@]3(O)C[C@H](OC(=O)[C@H](O)[C@@H](NC(=O)c4ccccc4)c4ccccc4)C(C)=C1C3(C)C)[C@]1(OC(C)=O)CO[C@@H]1C[C@@H]2O [paclitaxel]
- Senescence shown by luminescence (p16-3MR transgenic mice): Senescence was observed
- 3MR transgene mRNA in skin (p16-3MR transgenic mice; vs vehicle): increased
- IL-6 mRNA in skin (p16-3MR transgenic mice; vs vehicle): increased
- p16 mRNA in skin (p16-3MR transgenic mice; vs vehicle): increased

Structure (SMILES): Nc1cccc2c1CN(C1CCC(=O)NC1=O)C2=O (stereo not drawn) [lenalidomide]
- Level of senescent cells (luminescence) (p16-3MR animals): significant levels of senescent cells

Structure (SMILES): COC1=CC(c2cc3ccccc3[nH]2)=N/C1=C\c1[nH]c(C)cc1C [Obatoclax]
- pIC50 [2]: 7.12
- pIC50 (senescent IMR90 cells; Homo sapiens, IMR-90, 72 h, senescent IMR90, 3 days): 6.90

Structure (SMILES): Nc1cccc2c1C(=O)N(C1CCC(=O)NC1=O)C2=O (stereo not drawn) [omalidomide]
- Level of senescent cells (luminescence) (p16-3MR animals): significant levels of senescent cells

Structure (SMILES): CC[C@H](C(=O)N1CCCC[C@H]1C(=O)O[C@H](CCc1ccc(OC)c(OC)c1)c1cccc(OCC(=O)NCC(CNC(=O)COc2cccc([C@@H](CCc3ccc(OC)c(OC)c3)OC(=O)[C@@H]3CCCCN3C(=O)[C@@H](CC)c3cc(OC)c(OC)c(OC)c3)c2)CN(C)C)c1)c1cc(OC)c(OC)c(OC)c1 [AP20187]
- SpO2 levels [3]: statistically significant increases
- Time to cardiac arrest after lethal isoproterenol ([4]; 0.2 or 2 mg/kg three times/week from 12 to 18 months, isoproterenol 680 mg/kg): sustained youthful cardio-protection
- Sur2a expression ([4]; 18-month-old female mice): sustained Sur2a expression
- Median lifespan ([4]; INK-ATTAC mice): median lifespan extension

Structure (SMILES): CC1(C)CCC(CN2CCN(c3ccc(C(=O)NS(=O)(=O)c4ccc(NCC5CCOCC5)c([N+](=O)[O-])c4)c(Oc4cnc5[nH]ccc5c4)c3)CC2)=C(c2ccc(Cl)cc2)C1 [ABT-199]
- Selective targeting (killing) of senescent cells over non-senescent cells (senescent IMR90 cells; IMR90): inability
